The subject of the experiment is 958667-338-R-J2-PDC tumor spheroids viability. Nature of the experiment: Anticancer human tumor 958667-338-R-J2-PDC patient-derived colon adenocarcinoma cell line growth inhibition [PI3K]. As to conditions: spheroids with HUVEC and MSC; for viability, T/C: stronger effect = lower value. An excerpt: Combinatorial screen of targeted agents with the PI3K inhibitors inavolisib, alpelisib, duvelisib, and copanlisib in multi-cell type tumor spheroids
A high-throughput screen of multi-cell type tumor spheroids was designed to identify active combinations of targeted small molecules and PI3K pathway inhibitors. Complex spheroids include a stromal component modeled by human endothelial cells (HUVEC) and fibroblasts modeled by human mesenchymal stem cells (MSCs). The concentration ranges selected for each drug and investigational agent were based upon clinically achievable concentrations if the clinical Cmax of the agent was known.
Compounds. The drugs and investigational agents: inavolisib (NSC800729), alpelisib (NSC765974), duvelisib (NSC772469), copanlisib (NSC816437), ipatasertib (NSC767898), afuresertib (NSC778305), talazoparib (NSC767125), sapanisertib (NSC764658), selumetinib (NSC741078), tovorafenib (DAY101, NSC766906), vemurafenib (NSC761431), ravoxertinib (NSC781343), sotorasib (NSC818433), MRTX1133 (NSC 836407), abemaciclib (NSC 768073), palbociclib (NSC758247), venetoclax (NSC 766270), SY5609 (NSC837396), enzalutamide (NSC755605), and darolutamide (NSC825331), were obtained from the National Cancer Institute (NCI) Developmental Therapeutics Program Chemical Repository. The FDA-approved anticancer drug set is available from the NCI Developmental Therapeutics Program. […] The stock solutions were prepared in dimethyl sulfoxide (DMSO, Sigma-Aldrich, St. Louis, MO, cat. D2650) at 800-fold the tested concentration and stored at -70 degrees C prior to their use. All drugs and investigational agents were tested over a range starting from a high concentration at or near the clinical Cmax and decreasing in half-log increments. If the clinical Cmax for an agent had not been determined, the highest concentration tested was 10 microM.
Cell Culture. All cells were maintained in an incubator at 37 degrees C and 5% CO2 with 95% humidity. The PDC lines were cultured according to standard operating procedures established by the NCI PDMR (https://pdmr.cancer.gov/sops/default.htm). All PDCs were thawed and cultured in Matrigel-coated flasks prepared with a working solution of 1X Ham's F-12 nutrient mix, without supplementation (Invitrogen, Waltham, MA, cat. 11765054), 100 U/mL penicillin-streptomycin (Invitrogen, cat. 15140122), and 2.5% Matrigel (Corning Inc., Corning, NY, cat. 354248) for the first three passages. The 354836-022-R-J1-PDC, 475296-252-R-J1-PDC, and 997726-040-R-J2-PDC lines were cultured in 6A media, which includes advanced DMEM/F-12 (Thermo Fisher Scientific, cat. 12634028), 10 mM HEPES (Thermo Fisher Scientific, cat. 15630080), 1X GlutaMAX supplement (Thermo Fisher Scientific, cat. 35050061), 0.1 mg/mL primocin (InvivoGen, San Diego, CA, cat. ant-pm-2), 10% defined fetal bovine serum, heat inactivated (HyClone Laboratories Inc., Logan, UT, cat. SH30070.03HI), 50% L-WRN conditioned media (ATCC, cat. CRL-3276), 1.25 mM N-Acetyl-L-cysteine (Sigma-Aldrich, cat. A9165), 10 mM nicotinamide (Sigma-Aldrich, cat. N0636), 1X B-27 supplement (Thermo Fisher Scientific, cat. 17504044), 1X N-2 supplement (Thermo Fisher Scientific, cat. 17502048), and 10 microM Y-27632 dihydrochloride (Tocris Bioscience, Bristol, United Kingdom, cat. 1254). The 624824-186-R-J2-PDC line was cultured in 6C/Colon 1B media, which includes all 6A media components plus 50 ng/mL human EGF recombinant protein (Thermo Fisher Scientific, cat. PHG0311). […]
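Further: spheroids exposed to compounds for seven days before readout.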

A word on the viability, T/C: it is the result in the treated group divided by that in the control group, in per cent. By IC50 is commonly meant the concentration that inhibits the measured activity by half. As to `CC(Nc1ncnc2nc[nH]c12)c1cc2cccc(Cl)c2c(=O)n1-c1ccccc1` (stereo unspecified), the viability, T/C by setting is: (compound 0.1 µM) 93.8% [middle of 8 runs]; (compound 1 µM) 90.8% [middle of 8 runs]; (compound 10 µM) 92.9% [middle of 8 runs]. Besides, the IC50 (compound alone, run of 06/13/2023) is > 10 µM.

In the case of `C#Cc1c(F)ccc2cc(O)cc(-c3ncc4c(N5CC6CCC(C5)N6)nc(OCC56CCCN5CC(F)C6)nc4c3F)c12` (stereo unspecified) + CC(Nc1ncnc2nc[nH]c12)c1cc2cccc(Cl)c2c(=O)n1-c1ccccc1, the IC50 (curve of first compound, second compound 0.0316 µM) was > 10 µM; the IC50 (curve of first compound, second compound 0.1 µM) was > 10 µM; the IC50 (curve of first compound, second compound 0.316 µM) was > 10 µM; the concentration for half-maximal inhibition (IC50) (curve of first compound, second compound 1 µM) was > 10 µM; the 50% inhibitory concentration (IC50) (curve of first compound, second compound 3.16 µM) worked out at 7.83 µM; the half-maximal inhibitory concentration (IC50) (curve of first compound, second compound 10 µM) was determined as 8.56 µM. The viability, T/C is, setting by setting: (second compound 0.0316 µM, first compound 0.0316 µM) 104%; (second compound 0.0316 µM, first compound 0.1 µM) 99.2%; (second compound 0.0316 µM, first compound 0.316 µM) 109%; (second compound 0.0316 µM, first compound 1 µM) 84.9%; (second compound 0.0316 µM, first compound 3.16 µM) 97.5%; (second compound 0.0316 µM, first compound 10 µM) 69.7%. Further, the viability, T/C runs as follows: (second compound 0.1 µM, first compound 0.0316 µM) 102%; (second compound 0.1 µM, first compound 0.1 µM) 109%; (second compound 0.1 µM, first compound 0.316 µM) 86.8%; (second compound 0.1 µM, first compound 1 µM) 104%; (second compound 0.1 µM, first compound 3.16 µM) 85.2%; (second compound 0.1 µM, first compound 10 µM) 77.5%. Moreover, the viability, T/C reads like this: (second compound 0.316 µM, first compound 0.0316 µM) 84%; (second compound 0.316 µM, first compound 0.1 µM) 99.3%; (second compound 0.316 µM, first compound 0.316 µM) 93.5%; (second compound 0.316 µM, first compound 1 µM) 92.8%; (second compound 0.316 µM, first compound 3.16 µM) 93.9%; (second compound 0.316 µM, first compound 10 µM) 63.5%. Moreover, the viability, T/C reads like this: (second compound 1 µM, first compound 0.0316 µM) 77.4%; (second compound 1 µM, first compound 0.1 µM) 101%; (second compound 1 µM, first compound 0.316 µM) 90.9%; (second compound 1 µM, first compound 1 µM) 84.8%; (second compound 1 µM, first compound 3.16 µM) 106%; (second compound 1 µM, first compound 10 µM) 65.1%. For the same compound, the viability, T/C (second compound 3.16 µM, first compound 0.0316 µM) was 91.4%; the viability, T/C (second compound 3.16 µM, first compound 0.1 µM) was 94.2%; the viability, T/C (second compound 3.16 µM, first compound 0.316 µM) was 85.3%; the viability, T/C (second compound 3.16 µM, first compound 1 µM) is 76.5%; the viability, T/C (second compound 3.16 µM, first compound 3.16 µM) is 73.2%; the viability, T/C (second compound 3.16 µM, first compound 10 µM) was 43.6%. Further, the viability, T/C was 86.3% (second compound 10 µM, first compound 0.0316 µM); 83.2% (second compound 10 µM, first compound 0.1 µM); 73.1% (second compound 10 µM, first compound 0.316 µM); 86.9% (second compound 10 µM, first compound 1 µM); 71.5% (second compound 10 µM, first compound 3.16 µM); 46.4% (second compound 10 µM, first compound 10 µM).

The values are drawn from PubChem BioAssay AID1963963 (Molecular Pharmacology Branch, DTP, NCI, 2024).
